# System: fibroblastes d'un patient souffrant de CMTX
# Test: Abnormal cell nuclei (DAPI staining, Mitocheck classification) in fibroblasts of a CMTX patient
# Format: cell-based, humain
# Conditions: fibroblasts of the CMTX1 patient treated with clémastine at 10µmole; untreated patient cells about 30%, healthy individual less than 1% (Figure 1)
# Text: Les anomalies des noyaux cellulaires sont étudiées en déposant les fiboblastes sur des lames de microscopie et en colorant les noyaux à de l'aide 4',6-diamidino-2-phénylindole, ou DAPI, les rendant ainsi fluorescents. Les anomalies nucléaires sont classées selon la classification établie par le Mitocheck, à savoir : i) les noyaux mal formés, ii) les noyaux polylobés, iii) les noyaux non séparés et iv) les autres.
compound,measurement,value
CN1CCC[C@@H]1CCO[C@](C)(c1ccccc1)c1ccc(Cl)cc1 [clémastine],pourcentage des noyaux anormaux,~5%

# — patent publication EP3797769A1, “COMPOSITION FOR THERAPEUTIC USE” (Fontès, M. Michel, priority 2019, dated 2021)
